Measurements: patent publication US20160220464A1 (WUHAN OPTICS VALLEY BRIDGEBIOMED INTERNATIONAL CORPORATION, priority 2013, published 2016)
Where two headings read alike, the source gives them in different places. Where no end group is shown, it is not given here.

Legend:
Assay type in all cases: cell-based
[1] = system: human aortic smooth muscle cells (HASMC); assay: PG subtype secretion by EIA in HASMC; settings: 10 nM, 1 μM BK set as 100%
[2] = target: T1, bradykinin (BK) B2 receptors (Homo sapiens, UniProt P30411); assay: PG secretion by BK B2 receptor agonists (PG kit, OD), EC50 and Emax; settings: HASMC; for EC50: 1 h incubation at 37° C.
T1 construct: The cell strains used in the study were human primary vein endothelial cells (HPVEC) and human aortic smooth muscle cells (HASMC); endogenous in cells; host or cells: human primary vein endothelial cells (HPVEC) and human aortic smooth muscle cells (HASMC)
T1 sequence (P30411 1-391): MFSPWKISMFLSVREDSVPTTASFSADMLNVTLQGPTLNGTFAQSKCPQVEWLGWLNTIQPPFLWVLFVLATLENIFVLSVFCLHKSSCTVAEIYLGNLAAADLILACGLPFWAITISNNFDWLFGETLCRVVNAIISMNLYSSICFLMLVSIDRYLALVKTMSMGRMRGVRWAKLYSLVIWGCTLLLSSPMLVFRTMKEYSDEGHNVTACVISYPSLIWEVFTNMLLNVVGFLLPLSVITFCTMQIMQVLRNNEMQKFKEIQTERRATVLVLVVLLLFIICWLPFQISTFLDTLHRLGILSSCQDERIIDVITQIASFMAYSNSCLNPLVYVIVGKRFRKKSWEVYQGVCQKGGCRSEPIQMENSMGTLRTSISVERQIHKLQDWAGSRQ
Experimental: Implantation Two cell lines were transferred into T-75 cell culture flask, and then the instructions of PG kit were strictly followed when cells have reached the appropriate density. Day 1 Cells were seeded in 24 well dishes with minimum medium and allowed to adhere overnight. Day 2 Cells were starved in the serum-free conditioned medium. Day 3 Minimum medium were used, and YLB-01, YLB-02 and YLB-03 were added to the medium, in which the concentration was 0.1 nM, 1 nM, 10 nM, 30 nM, 100 nM, 300 nM, 1 μM, 3 μM and 10 μM, respectively; the cells were incubated at 37° C. for 1 h. The supernatant was collected after incubation for later use. Day 4 24 well dishes were washed and then dyed for 45-90 min, and then the OD value was measured for analysis. The cell strains used in the study were human primary vein endothelial cells (HPVEC) and human aortic smooth muscle cells (HASMC).

[3] = system: human primary vein endothelial cells (HPVEC); assay: PG subtype secretion by EIA in HPVEC; settings: 10 nM, 1 μM BK set as 100%
Experimental: In order to study of prostaglandin subtypes secretion triggered by activation of B2 receptor by these three compounds, human primary vein endothelial cells (HPVEC) and human aortic smooth muscle cells (HASMC) were used for PG secretion, following the same protocol above; 10 nM of these compounds, YLB-1, YLB-2, YLB-3 was added. […] These percentage values above were all calibrated with respect to bradykinin.

[4] = target: T2, B2 receptor (Homo sapiens, UniProt P30411); assay: Relative PG secretion with B2 receptor inhibitor HOE-140; settings: 1 μM BK set as 100%
T2 construct: The cell strains used in the study were human primary vein endothelial cells (HPVEC) and human aortic smooth muscle cells (HASMC); endogenous in cells; host or cells: human primary vein endothelial cells (HPVEC) and human aortic smooth muscle cells (HASMC)
T2 sequence (P30411 1-391): T1 sequence (P30411 1-391)
Experimental: Two different cell lines were transferred into T-75 cell culture flask, and then the instructions of PG kit were strictly followed when cells have reached the appropriate density. Day 1. Cells were seeded in 24 well dishes with minimum medium and allowed to adhere overnight. Day 2. Cells were starved in the serum-free conditioned medium. Day 3. […] Cells were incubated at 37° C. for 1 h. The supernatant was collected after incubation for later use. Day 4. 24 well dishes were washed and then dyed for 45-90 min, and then the quantitative analysis was carried out.

[5] = target: T3, BK B2 receptor (Homo sapiens, UniProt P30411); assay: Relative amount of PG secretion in cell supernatant by enzyme immunoassay (EIA); settings: 1 h, 1 μM BK set as 100%; for activation at 0.0001 µM: 0.1 nM; for activation at 0.001 µM: 1 nM; for activation at 0.01 µM: 10 nM; for activation at 0.03 µM: 30 nM; for activation at 0.1 µM: 100 nM; for activation at 0.3 µM: 300 nM
T3 construct: The cell strains used in the study were human primary vein endothelial cells (HPVEC) and human aortic smooth muscle cells (HASMC); endogenous in cells; host or cells: human primary vein endothelial cells (HPVEC) and human aortic smooth muscle cells (HASMC)
T3 sequence (P30411 1-391): T1 sequence (P30411 1-391)
Experimental: YLB-01, YLB-02 and YLB-03 were selected for the study as described below in Table 1, and BK was used as control. Implantation Two cell lines were transferred into T-75 cell culture flask, and then the instructions of PG kit were strictly followed when cells have reached the appropriate density. Day 1 Cells were seeded in 24 well dishes with minimum medium and allowed to adhere overnight. Day 2 Cells were starved in the serum-free conditioned medium. […] The supernatant was collected after incubation for later use. Day 4 24 well dishes were washed and then dyed for 45-90 min, and then the OD value was measured for analysis. […] In order to detect endogenous prostaglandin, enzyme immunoassay (EIA) was used to determine the amount of prostaglandin and subtypes thereof in the cell supernatant described above.

Row | Compound | PGD2 [1] | PGE2 [1] [%] | PGF-2a [1] [%] | EC50 [2] [nM] | Emax ([2]; relative to BK, read-out: Emax) [%] | Emax ([2]; relative to BK) [%] | PGD2 [3] | PGE2 [3] [%] | PGF-2a [3] | Relative PG Secretion Amount with 1 μM HOE-140 ([4]; agonist 0.1 nM + HOE-140 1 μM) [%] | Relative PG Secretion Amount with 1 μM HOE-140 ([4]; agonist 1 nM + HOE-140 1 μM) [%] | Relative PG Secretion Amount with 1 μM HOE-140 ([4]; agonist 10 nM + HOE-140 1 μM) [%] | Relative PG Secretion Amount with 1 μM HOE-140 ([4]; agonist 30 nM + HOE-140 1 μM) [%] | Relative PG Secretion Amount with 1 μM HOE-140 ([4]; agonist 100 nM + HOE-140 1 μM) [%] | Relative PG Secretion Amount with 1 μM HOE-140 ([4]; agonist 300 nM + HOE-140 1 μM) [%] | Relative PG Secretion Amount with 1 μM HOE-140 ([4]; agonist 1 μM + HOE-140 1 μM) [%] | Relative PG Secretion Amount with 1 μM HOE-140 ([4]; agonist 3 μM + HOE-140 1 μM) [%] | Relative PG Secretion Amount with 1 μM HOE-140 ([4]; agonist 10 μM + HOE-140 1 μM) [%] | activation at 0.0001 µM [5] [%] | activation at 0.001 µM [5] [%] | further results
1 | CNC(=O)N1CCN(CCC(=O)NCC(=O)N(C)c2ccc(Cl)c(COc3cccc4c3nc(OC)n4Cc3ccccn3)c2Cl)CC1 [YLB-03, 4-{2-[({[2,4-Dichloro-3-(2-methoxy-1-pyridin-2-ylmethyl-1H-benzoimidazol-4-yloxymethyl)-phenyl]-methyl-carbamoyl}-methyl)-carbamoyl]-ethyl}-piperazine-1-carboxylic acid methylamide] | undetectable | 27.83 ± 10.66 | 8.43 ± 3.57 | 26.2 ± 2.87 | 103 | 103.48 ± 9.06 | undetectable | 31.04 ± 8.49 | undetectable | 0.54 ± 3.59 | 2.65 ± 3.81 | 5.64 ± 4.05 | 4.90 ± 4.83 | 3.97 ± 2.75 | 0.48 ± 3.50 | 5.14 ± 2.67 | 7.33 ± 4.12 | 26.08 ± 7.56 | 0.44 ± 1.22 | 10.3 ± 2.3 | activation at 0.01 µM [5]: 47.3 ± 4.22%; activation at 0.03 µM [5]: ~55%; activation at 0.1 µM [5]: 71 ± 4.57%; activation at 0.3 µM [5]: 86.2 ± 8.51%; activation at 1 µM [5]: 85 ± 4.83%; activation at 3 µM [5]: 95.6 ± 7.21%; activation at 10 µM [5]: 103 ± 9.06%
2 | COc1nc2c(OCc3c(Cl)ccc(N(C)C(=O)CNC(=O)CCc4ccc(NC(C)=O)nc4)c3Cl)cccc2n1Cc1ccccn1 [YLB-02] | undetectable | 26.33 ± 6.78 | 7.1 ± 3.41 | 40.6 ± 4.19 | 70 | 70.44 ± 5.06 | undetectable | 34.15 ± 9.54 | undetectable | 3.65 ± 2.77 | 0.21 ± 4.42 | 5.60 ± 3.43 | 3.33 ± 1.88 | 0.43 ± 4.16 | 1.05 ± 2.39 | 2.87 ± 3.04 | 4.25 ± 2.06 | 10.1 ± 4.43 | 0 | 15.2 ± 3.36 | activation at 0.01 µM [5]: 26.4 ± 6.06%; activation at 0.03 µM [5]: ~40%; activation at 0.1 µM [5]: 65.6 ± 8.1%; activation at 0.3 µM [5]: 67.3 ± 7.02%; activation at 1 µM [5]: 66.9 ± 8.11%; activation at 3 µM [5]: 70.4 ± 5.06%; activation at 10 µM [5]: 65.5 ± 5.78%
3 | RPPGFSPFR [BK, Bradykinin, reference compound] |  |  |  |  |  |  |  |  |  |  |  |  |  |  |  |  |  |  |  |  | Emax [2]: 101 ± 5.5%
